Data on one compound can be found in ChEMBL document CHEMBL3769405, “Discovery of Potent and Selective Inhibitors of Phosphodiesterase 1 for the Treatment of Cognitive Impairment Associated with Neurodegenerative and Neuropsychiatric Diseases” (J Med Chem, 2016).

One may read the Vd as the apparent volume that relates the amount in the body to the concentration in plasma or blood. High values mean wide distribution into tissue, low ones little distribution into tissue. As usually defined, the AUC(0-inf) is total exposure, with the tail of the curve extrapolated. Higher therefore signals more exposure. The AUC(0-t) is the area under the concentration-time curve up to a stated or last time point. The low end stands for less exposure, the high end for more exposure. For orientation: logD means lipophilicity at a set pH, counting ionised and neutral species. What is called half-life is the time in which the quantity being followed falls by half. The low end stands for fast loss, the high end for slow loss. What is called Cmax is the highest concentration seen after dosing. Usually bioavailability stands for dose-corrected exposure relative to a reference, in per cent. A low value points to little systemic uptake. By Tmax is commonly meant the time at which the peak concentration occurs. As a reminder, the solubility is the dissolved amount per volume that the medium holds. A low value points to a poorly soluble substance. Usually clearance stands for the rate of elimination divided by the concentration. Higher therefore signals a high capacity for elimination. Broadly, the Ki is a dissociation constant, usually derived from enzyme kinetics or from competition with a known ligand.

Series [1] in a line: Volume of distribution in Sprague-Dawley rat at 1 mg/kg, iv. The series is classed as ADME, organism-based. To be noted: in vivo.
Series [2] in a line: AUC(infinity) in Sprague-Dawley rat at 9.75 mg/kg administered through oral gavage. The series is classed as ADME, organism-based. Also on record: dose 9.75 mg/kg, route oral, time infinity. Particulars: in vivo.
Series [3] in a line: AUClast in C57BL/6 mouse brain at 10 mg/kg administered through oral gavage. Type of series: ADME, organism-based. Also on record: dose 10 mg/kg, time 0 - last, route oral.
Series [4] is described as follows: Lipophilicity, logD of compound at pH 1.7. The series is classed as physicochemical. To be noted: buffer.
The nature of series [5]: Half time in Sprague-Dawley rat at 1 mg/kg, iv. Type of series: ADME, organism-based. To be noted: in vivo.
The nature of series [6]: Lipophilicity, logD of compound at pH 7.4. Type of series: physicochemical. To be noted: buffer.
Series [7] can be described thus: Cmax in Sprague-Dawley rat at 9.75 mg/kg administered through oral gavage. Type of series: ADME, organism-based. Also on record: dose 9.75 mg/kg, route oral. Particulars: in vivo.
Series [8] in a line: Oral bioavailability in Sprague-Dawley rat at 9.75 mg/kg administered through gavage. Type of series: ADME, organism-based. Particulars: in vivo.
The nature of series [9]: Half time in Sprague-Dawley rat at 9.75 mg/kg administered through oral gavage. The series is classed as ADME, organism-based. Particulars: in vivo.
The nature of series [10]: Cmax in C57BL/6 mouse brain at 10 mg/kg administered through oral gavage. Also on record: dose 10 mg/kg, route oral. Type of series: ADME, organism-based.
Series [11] can be described thus: Tmax in Sprague-Dawley rat at 9.75 mg/kg administered through oral gavage. Type of series: ADME, organism-based. To be noted: in vivo.
Series [12] in a line: Intrinsic clearance in human liver microsomes. Type of series: ADME. Particulars: read-out: CLH.
A short description of series [13]: Solubility of compound in PBS. The series is classed as physicochemical.
A further series concerns Rattus norvegicus. The series is described as follows: Increase in cognitive performance in ip dosed Sprague-Dawley rat after 60 mins by novel object recognition test. Type of series: functional. Particulars: 1 h, read-out: MED.
The nature of series [14]: Clearance in Sprague-Dawley rat at 1 mg/kg, iv. Type of series: ADME, organism-based. To be noted: in vivo.
A short description of series [15]: Cmax in C57BL/6 mouse plasma at 10 mg/kg administered through oral gavage. The series is classed as ADME, organism-based. Also on record: dose 10 mg/kg, route oral.
The nature of series [16]: Inhibition of bovine brain PDE1 using fluorescent labeled cGMP as substrate after 15 mins by IMAP assay. Also on record: species or system Bos taurus.
Series [17] in a line: AUClast in C57BL/6 mouse plasma at 10 mg/kg administered through oral gavage. Type of series: ADME, organism-based. Also on record: dose 10 mg/kg, time 0 - last, route oral.
The target in series [18] is cGMP-specific 3',5'-cyclic phosphodiesterase (Homo sapiens, UniProt O76074). The series is described as follows: Inhibition of recombinant full lenght human PDE5A using fluorescent labeled cGMP as substrate after 15 mins by IMAP assay.
Series [19] is described as follows: AUC(infinity) in Sprague-Dawley rat at 1 mg/kg, iv. Particulars: in vivo. Also on record: dose 1 mg/kg, time infinity, route intravenous. The series is classed as ADME, organism-based.

In the case of `CN1C(=O)c2c(nn(Cc3ccc(-c4cccc(F)n4)cc3)c2Nc2ccccc2)N2C1=N[C@@H]1CCC[C@@H]12.O=P(O)(O)O` [LENRISPODUN PHOSPHATE], the Vd in [1] was 6.83 L/kg. In addition, the AUC(0-inf) was found to be 802 ng·h/mL in series [2] and 300 ng·h/mL in [19]. The AUC(0-t) was found to be 588 ng·h/mL in [3] and 826 ng·h/mL in [17]. The logD worked out at 1.27 in [4] and 4.41 in series [6]. The values for the half-life in series [5] and in series [9] were 1.4 h and 1.5 h, respectively. Further, the values for the Cmax in [7], in series [10] and in series [15] were 252 ng/mL, 387 ng/mL and 490 ng/mL, respectively. In series [8], the bioavailability is 28%. The Tmax in series [11] was 0.75 h. Further, the CLint scaled in series [12] turned out to be 78 mL/min/kg. The compound further returned a solubility in series [13] of 22 µM. Moreover, in the series on Rattus norvegicus, the minimal effective dose was found to be 3 mg/kg. Besides, the clearance in [14] was determined as 55 mL/min/kg. Also, the inhibition constant Ki in [16] came out at 0.058 nM; in [18], 630 nM.
